From patent publication US20240016924A1, “NEW ADJUVANT TO IMPROVE THE INNATE IMMUNITY” (INSTITUT NATIONAL DE LA SANTÉ ET DE LA RECHERCHE MÉDICALE, priority 2020, published 2024)

Key:
RPMI 2650 cells = assay: TSLP secretion in nasal RPMI 2650 cell culture supernatants (ELISA); type: cell-based, human
Experimental: Nasal RPMI 2650 cells (isolated from the human nasal septum, squamous cell carcinoma, ATCC) were grown in MEMα (Minimum Essential Medium α, Thermo Fisher) supplemented with 10% fetal calf serum (FCS, Eurobio, Courtaboeuf, France) and 1% penicillin/streptomycin.
(§1) TSLP, IL-25/IL-17E, IL-33, IFN-γ, IL-10, IL-12/23p40, IL-4, IL-5, IL-6, IL-13, TNF-α, MMP-9, IL-8/CXCL8, […], MDC/CCL22, TARC/CCL17, APRIL and BAFF were measured in culture supernatants from indicated experiments with custom multiplex Luminex assays (Bio-techne) according to the manufacturer's instructions. Additionally, when indicated TSLP was measured in culture supernatants by enzyme-linked immunosorbent assay (ELISA) with a limit of detection of 8 pg/ml (Thermo Fisher) according to the manufacturer's instructions.
We first investigate whether P1 induced TSLP secretion in nasal epithelium. Therefore, we cultured human nasal epithelial cells (RPMI 2650) with P1 Glade B for 2-24 hours at 37° C. and analyzed the culture supernatants for TSLP secretion.

[1] = intranasal immunization, gp140 antigen; Van Roey, Arias et al. 2012; cited from earlier work
nasal RPMI cells [2] = assay: Calcium measurement (Fura-2/AM), nasal RPMI cells; type: cell-based, human; settings: P1 125 μM vs 2511M, controls at 125 μM, n=3
Experimental: (§2) 70-80% confluent RPMI 2650 or HNEC cells in 24-well plate were loaded with […] Fura-2/AM (Molecular Probes) in basal medium without serum/growth factors for 1 hour at 37° C. Cells were washed twice with mammalian saline (Conche, Boulla et al. 2009) and measurements were performed in complete medium supplied with HEPS (10 mM) and CaCl2 (2 mM) as described add (Conche, Boulla et al. 2009). Images were acquired with an inverted fluorescence microscope (Observer Z1, Zeiss, Germany) and analyzed with MetaMorph software (Guichard, Bonilla et al. 2017) Calcium was measured every 5 seconds by video fluorescence imaging. Results were expressed as 340 nm to 380 nm fluorescence ratio and normalized to the baseline, i.e. ratio at time zero was set as 1.

primary HNEC cells = assay: Calcium measurement (Fura-2/AM), primary HNEC cells; type: cell-based, human; settings: P1 125 μM vs 2511M, controls at 125 μM, n=3
Experimental: as §2

autologous CD4+ T cells = assay: DC-T co-cultures, CD4+ T cell proliferation (CFSE); type: cell-based, human; settings: peptide-primed eduDCs, 125 μM, 5 days, DC/T 1:5
Experimental: Autologous CD4+ T cells were purified from PMBCs by negative selection according to manufacturer instructions (StemCell Technologies, France) (purity>95%)
DCs and confluent ECs were co-cultured overnight as described above, and DC-EC or eduDC was further incubated with P1 (clade B, 125 μM) or medium for 24 h. Then, DCs were separated and incubated with autologous CD4+ T cells pre-labeled with CFSE (Thermo Fisher) according to the manufacturer's instructions, at a ratio of 1:5 (DC/T). After 5 days of culture, CD4+ T cell proliferation was analyzed by flow cytometry as described (Yeh, Yeh et al. 2013, Qin, Yin et al. 2015) using Phytohaemagglutinin (PHA) (5 μg/mL) as positive control.

nasal RPMI cells [3] = assay: Cytokines and chemokines quantification (Luminex), nasal RPMI cells; type: cell-based, human; settings: 125 μM, 24 hrs
Experimental: as §1
We next investigated whether, in addition to TSLP, P1 could stimulate epithelial secretion of additional immune factors prone to attract antigen presenting cells (APCs). […] Together with TSLP (Zhou, Xu et al. 2018), this set of immune factors could facilitate recruitment of APCs to the mucosal surface for initiation of an immune response, since CCL20 and CCL2 chemo-attract macrophages and immature dendritic cells (DCs), and MMP-9 degrades the extracellular matrix and facilitates the migration of immune cells in or out the epithelium. Treg cells have IgA-inducing functions and require RA, TGF-b1, IL-10, and TSLP from intestinal epithelial cells and DCs. So, we assumed IL-10 released from either EC or DC may contribute to IgA class switching (Gutzeit, Magri, et al. 2014).

primary HNECs = assay: Signaling inhibitors on P1-induced TSLP expression; type: cell-based, human
Experimental: The expression of short and long form TSLP was quantified as described (Bjerkan, Schreurs et al. 2015, Dong, Hu et al. 2016). Briefly, total RNA was extracted using Trizol. Five hundred nanograms of RNA were treated with ezDNase Enzyme (Thermo Fisher) to remove genomic DNA, and reverse transcribed into cDNA using the kit SuperScript IV VILO Master Mix according to manufacturer instructions (Thermo Fisher). Quantitative PCR was performed using reported primers (Dong, Hu et al. 2016) and the PowerUp SYBR Green Master Mix according to manufacturer instructions (Thermo Fisher). Reactions were performed in triplicates, with glyceraldehyde-3-phosphate dehydrogenase (GAPDH) as the internal control. Amplification, data acquisition, and analysis were carried out using the LightCycler 480 Software (Roche, Mannheim, Germany). The levels of TSLP mRNA were normalized to the levels of GAPDH using the ΔCt method (Schmittgen and Livak 2008) and were presented as 2-ΔCt values.
Signaling inhibitors Confluent HNEC cells in 24-well plate were pre-incubated with inhibitors for 1 h at 37° C. prior to P1 treatment. Inhibitors, namely dexamethasone (Dex) a NF-kB and MAPK inhibitor (used at 100 nM), and Cyclosporin A (CsA) a Calcineurin Inhibitor (used at 1.5 μM), were from Invivogen and used at the manufacturer's recommended concentrations. […]

[4] = test system: CD8-depleted PBMCs cocultured with RPMI 2650 cells; assay: In vitro immunization assay with ovalbumin; type: cell-based, human; settings: OVA alone 10 μg/mL, no adjuvant
Experimental: In vitro immunization assay was performed as reported (Jung, Matsumoto et al. 2007) with modifications. Briefly, 1×10^6 CD8-depleted PBMCs (Human CD8 Depletion Cocktail, StemCell Technologies, France) were cocultured for 24 hrs with RPMI 2650 cells ([…]) pre-seeded in 48 well plates for 48 hrs. Then, ovalbumin (OVA, EndoFit Ovalbumin, 10 µg/mL, Invivogen) alone, OVA together with P1 (5 μM, 25 μM, 125 μM), OVA together with P1 mutant (P1mut, 125 μM), or medium were added to in RPMI 1640 medium supplemented with Non-Essential Amino Acids (NEAA solution, Thermo Fisher), IL-4 ([…]), IL-2 (10 UI/mL) and 2-mercaptoethanol (20 μM) for 7 days.
For the detection of OVA-specific B cells, at indicated time of culture, PMBCs were surface stained with ovalbumin conjugated to fluorescein (OVA-FITC, 20 ug/mL, Thermo), PE-conjugated mouse anti-human CD20 (BD Biosciences, CA, USA), APC-conjugated goat anti-human IgA or donkey anti-human IgG (Jackson ImmunoResearch, PA, USA) as indicated by the manufacturer. Specific labeling was quantified by flow cytometry with a Guava EasyCyte flow cytometer (Merck-Millipore), and analyzed with the dedicated InCyte software, using the following strategy: CD20+ B cells were first gated and cell double positive for OVA-FITC+ and APC-conjugated anti-IgA or anti-IgG were determined as OVA-IgA or IgG-specific B-cell s.
In vitro immunization assays have been used to produce specific monoclonal antibodies using a defined antigen complemented with an adjuvant (Borrebaeck, Danielsson et al. 1987). Here, we establish a mucosal immunization model adapted from (Jung, Matsumoto et al. 2007, Yeh, Yeh et al. 2013, Wijkhuisen, Savatier et al. 2016) and using mucosal DCs based on our results presented above. OVA was selected as the model antigen. Therefore, human CD8-depleted PBMCs (n=5 independent donors) were cocultured with RPMI 2650 cells for one day to educate DCs, and prior to addition of either medium, OVA, OVA plus P1 mutant (P1mut, 125 μM) or OVA plus P1 (5 μM, 25 μM, 125 μM) for seven more days. OVA-specific B cells were quantified by flow cytometry using FITC-conjugated OVA and anti-CD2O-PE to gate on OVA-specific B cells. The Ig isotype of surface B cell receptor (BCR) was next characterized by APC-conjugated anti-human-IgA or anti-human-IgG. […] Similar results were obtained when B cells were stained with anti-CD19-PE.

## SQIQQKKNEQDLLALDKWANLWNWFDISNWLWYIR (Synthetic P1 clade A) [P1 Glade A]
RPMI 2650 cells; 125 uM, p<0.05, n=5
  Reduction of TSLP secretion compared to clade B P1: 20%
RPMI 2650 cells; peptide at 125 uM, 4 hours, n=5
  Secretion of TSLP: 41.8 ± 2.6 pg/mL

## Thymic stromal lymphopoietin [TSLP]
[1]
  humoral response as mucosal adjuvant: induced a strong humoral response both in serum and at genital level

## SQTQQEKNEQELLALDSWKNLWNWFSITNWLWYIK [P1 Glade C]
RPMI 2650 cells; RPMI nasal cells, 4 hours
  Induction of TSLP secretion by P1 variants: failed to induce TSLP secretion
Nasal RPMI cells [2]
  extracellular calcium influx (340/380 nm ratio): fails to raise the calcium level significantly
Primary HNEC cells
  extracellular calcium influx (340/380 nm ratio): fails to raise the calcium level significantly
Autologous CD4+ T cells
  proliferation of autologous CD4+ T cells: has no effect
Nasal RPMI cells [3]
  secretion of MMP-9, CCL20, CCL2 and IL-10: unable to stimulate significant MMP-9, CCL-20 CCL2 or IL-10 production

## CC(C)CC(=O)N1CCN(C(=O)CCCCCN)CC1 [ENMD-1068]
Primary HNECs; 1 h pre-treatment before P1, CsA 1.5 μM, ENMD-1068 500 μg/mL, n=3
  reduction of P1-induced TSLP expression: 46±24%
Primary HNECs; inhibitor pre-treatment before P1
  P1-induced up-regulation of miR-4485-3p: blocked the up-regulation of miR-4485-3p

B1: ovalbumin (protein, UniProt P01012 2-386, looked up)
Ovalbumin: GSIGAASMEFCFDVFKELKVHHANENIFYCPIAIMSALAMVYLGAKDSTRTQINKVVRFDKLPGFGDSIEAQCGTSVNVHSSLRDILNQITKPNDVYSFSLASRLYAEERYPILPEYLQCVKELYRGGLEPINFQTAADQARELINSWVESQTNGIIRNVLQPSSVDSQTAMVLVNAIVFKGLWEKAFKDEDTQAMPFRVTEQESKPVQMMYQIGLFRVASMASEKMKILELPFASGTMSMLVLLPDEVSGLEQLESIINFEKLTEWTSSNVMEERKIKVYLPRMKMEEKYNLTSVLMAMGITDVFSSSANLSGISSAESLKISQAVHAAHAEINEAGREVVGSAEAGVDAASVSEEFRADHPFLFCIKHIATNAVLFFGRCVSP
notes: model antigen, EndoFit Ovalbumin, Invivogen
[4]
  induction of OVA-specific B cells: failed to induce OVA-specific specific B cells
